Assay results taken from article PMC11277489, “Novel Piperazine Derivatives of Vindoline as Anticancer Agents” (International Journal of Molecular Sciences, 2024).
Read-outs that look alike come from different tables or passages of the source.

What was measured:
UACC-62 = experiment: NCI60 one-dose screen (10 μM), Melanoma; type: cell-based; conditions: Homo sapiens
MDA-MB-435 = experiment: NCI60 one-dose screen (10 μM), Melanoma; type: cell-based; conditions: Homo sapiens
MDA-MB-231/ATCC = experiment: NCI60 one-dose screen (10 μM), Breast Cancer; type: cell-based, human; conditions: Homo sapiens
HCC-2998 = experiment: NCI60 one-dose screen (10 μM), Colon Cancer; type: cell-based; conditions: Homo sapiens
NCI/ADR-RES = experiment: NCI60 one-dose screen (10 μM), Ovarian Cancer; type: cell-based; conditions: Homo sapiens, read-out: Growth percent rate
PC-3 = experiment: NCI60 one-dose screen (10 μM), Prostate Cancer; type: cell-based; conditions: Homo sapiens
CAKI-1 = experiment: NCI60 one-dose screen (10 μM), Renal Cancer; type: cell-based; conditions: Homo sapiens
OVCAR-5 = experiment: NCI60 one-dose screen (10 μM), Ovarian Cancer; type: cell-based; conditions: Homo sapiens
OVCAR-4 = experiment: NCI60 one-dose screen (10 μM), Ovarian Cancer; type: cell-based; conditions: Homo sapiens
NCI-H226 = experiment: NCI60 one-dose screen (10 μM), Non-small Cell Lung Cancer; type: cell-based; conditions: Homo sapiens
NCI-H23 = experiment: as above; type: cell-based; conditions: Homo sapiens
UO-31 = experiment: NCI60 one-dose screen (10 μM), Renal Cancer; type: cell-based; conditions: Homo sapiens
BT-549 = experiment: NCI60 one-dose screen (10 μM), Breast Cancer; type: cell-based; conditions: Homo sapiens
EKVX = experiment: NCI60 one-dose screen (10 μM), Non-small Cell Lung Cancer; type: cell-based; conditions: Homo sapiens, read-out: Growth percent rate
T-47D = experiment: NCI60 one-dose screen (10 μM), Breast Cancer; type: cell-based; conditions: Homo sapiens, T47D, read-out: Growth percent rate
SR = experiment: NCI60 one-dose screen (10 μM), Leukemia; type: cell-based; conditions: Homo sapiens, read-out: Growth percent rate
SK-OV-3 = experiment: NCI60 one-dose screen (10 μM), Ovarian Cancer; type: cell-based; conditions: Homo sapiens
HOP-92 = experiment: NCI60 one-dose screen (10 μM), Non-small Cell Lung Cancer; type: cell-based; conditions: Homo sapiens; 10 μM; HOP-92, Non-small Cell Lung Cancer; read-out: Growth percent rate
MDA-MB-468 = experiment: NCI60 one-dose screen (10 μM), Breast Cancer; type: cell-based; conditions: Homo sapiens
[1] = 10 μM, UACC-62, Melanoma, read-out: Growth percent rate
[2] = 10 μM, MDA-MB-435, Melanoma, read-out: Growth percent rate
[3] = 10 μM, MDA-MB-231/ATCC, Breast Cancer, read-out: Growth percent rate
[4] = 10 μM, HCC-2998, Colon Cancer, read-out: Growth percent rate
[5] = 10 μM, PC-3, Prostate Cancer, read-out: Growth percent rate
[6] = 10 μM, CAKI-1, Renal Cancer, read-out: Growth percent rate
[7] = 10 μM, OVCAR-5, Ovarian Cancer, read-out: Growth percent rate
[8] = 10 μM, OVCAR-4, Ovarian Cancer, read-out: Growth percent rate
[9] = 10 μM, NCI-H226, Non-small Cell Lung Cancer, read-out: Growth percent rate
[10] = 10 μM, NCI-H23, Non-small Cell Lung Cancer, read-out: Growth percent rate
[11] = 10 μM, UO-31, Renal Cancer, read-out: Growth percent rate
[12] = 10 μM, BT-549, Breast Cancer, read-out: Growth percent rate
[13] = 10 μM, Non-small Cell Lung Cancer
[14] = 10 μM, SK-OV-3, Ovarian Cancer, read-out: Growth percent rate
[15] = 10 μM, MDA-MB-468, Breast Cancer, read-out: Growth percent rate
[16] = UACC-62, read-out: Growth percent rate
[17] = MDA-MB-435, read-out: Growth percent rate
[18] = MDA-MB-231, read-out: Growth percent rate
[19] = HCC 2998, read-out: Growth percent rate
[20] = CAKI-1, read-out: Growth percent rate
[21] = OVCAR-5, read-out: Growth percent rate
[22] = OVCAR-4, read-out: Growth percent rate
[23] = NCI-H226, read-out: Growth percent rate
[24] = NCI-H23, read-out: Growth percent rate
[25] = UO-31, read-out: Growth percent rate
[26] = BT-549, read-out: Growth percent rate
[27] = SK-OV-3, read-out: Growth percent rate

Structure (SMILES) | activity at 10 µM (UACC-62; [1]) | activity at 10 µM (MDA-MB-435; [2]) | activity at 10 µM (MDA-MB-231/ATCC; [3]) | activity at 10 µM (HCC-2998; [4]) | activity at 10 µM (NCI/ADR-RES; 10 μM, Ovarian Cancer) | activity at 10 µM (PC-3; [5]) | activity at 10 µM (CAKI-1; [6]) | activity at 10 µM (OVCAR-5; [7]) | activity at 10 µM (OVCAR-4; [8]) | activity at 10 µM (NCI-H226; [9]) | activity at 10 µM (NCI-H23; [10]) | activity at 10 µM (UO-31; [11]) | activity at 10 µM (BT-549; [12]) | activity at 10 µM (EKVX; [13]) | activity at 10 µM (T-47D; 10 μM, T-47D, Breast Cancer) | activity at 10 µM (SR; 10 μM, Leukemia) | activity at 10 µM (SK-OV-3; [14]) | activity at 10 µM (HOP-92) | activity at 10 µM (MDA-MB-468; [15]) | further results
CCC12C=CCN3CCC4(c5cc(NC(=O)CN6CCN(C)CC6)c(OC)cc5N(C)C4C(O)(C(=O)OC)C1OC(C)=O)C32 (stereo not shown) [Compound 16] | 98.9% | 114% | 102% | 106% | 104% | 93.1% | 89.5% | 102% | 109% | 101% | 103% | 89.4% | 113% | 94.8% | 104% | 93.8% | 113% |  |  | 
CC[C@]12C=CCN3CC[C@@]4(c5ccc(OC)cc5N(C)[C@H]4[C@@](O)(C(=O)OC)[C@@H]1OC(=O)CCC(=O)N1CCN(C)CC1)[C@@H]32 [Compound 27] | 112% | 121% |  | 86.5% | 107% | 101% | 96.6% |  | 105% | 80.4% | 98.9% |  | 88.6% | 90.7% |  |  | 106% | 105% | 124% | 
CCC12C=CCN3CCC4(c5cc(NC(=O)CN6CCN(Cc7ccc(F)cc7)CC6)c(OC)cc5N(C)C4C(O)(C(=O)OC)C1OC(C)=O)C32 (stereo not shown) [Compound 19] |  |  |  |  |  |  |  |  |  |  |  |  |  |  |  |  |  |  |  | activity at 10 µM (UACC-62; [16]): 96.9%; activity at 10 µM (MDA-MB-435; [17]): 103%; activity at 10 µM (MDA-MB-231/ATCC; [18]): 102%; activity at 10 µM (HCC-2998; [19]): 102%; activity at 10 µM (NCI/ADR-RES): 97.3%; activity at 10 µM (PC-3; PC-3, read-out: Growth percent rate): 73.6%; activity at 10 µM (CAKI-1; [20]): 69.3%; activity at 10 µM (OVCAR-5; [21]): 111%; activity at 10 µM (OVCAR-4; [22]): 102%; activity at 10 µM (NCI-H226; [23]): 97.8%; activity at 10 µM (NCI-H23; [24]): 103%; activity at 10 µM (UO-31; [25]): 89.1%; activity at 10 µM (BT-549; [26]): 101%; activity at 10 µM (EKVX): 88.8%; activity at 10 µM (T-47D): 93%; activity at 10 µM (SR): 75.3%; activity at 10 µM (SK-OV-3; [27]): 108%
CCC12C=CCN3CCC4(c5cc(NC(=O)CN6CCN(C(=O)c7ccco7)CC6)c(OC)cc5N(C)C4C(O)(C(=O)OC)C1OC(C)=O)C32 (stereo not shown) [Compound 21] | 103% | 104% | 98.8% | 126% | 112% |  | 97.5% | 121% | 108% | 111% | 106% | 89.3% | 117% | 99.2% | 111% | 97.2% | 113% |  | 120% | 
CCC12C=CCN3CCC4(c5cc(NC(=O)CN6CCN(Cc7ccc(C(F)(F)F)cc7)CC6)c(OC)cc5N(C)C4C(O)(C(=O)OC)C1OC(C)=O)C32 (stereo not shown) [Compound 18] |  |  |  |  |  |  |  |  |  |  |  |  |  |  |  |  |  |  |  | activity at 10 µM (UACC-62; [16]): 74.4%; activity at 10 µM (MDA-MB-435; [17]): 63.9%; activity at 10 µM (MDA-MB-231/ATCC; [18]): 43.7%; activity at 10 µM (HCC-2998; [19]): 79.1%; activity at 10 µM (NCI/ADR-RES): 61.9%; activity at 10 µM (CAKI-1; [20]): 33%; activity at 10 µM (OVCAR-5; [21]): 108%; activity at 10 µM (OVCAR-4; [22]): 63.1%; activity at 10 µM (NCI-H226; [23]): 67.7%; activity at 10 µM (NCI-H23; [24]): 73.1%; activity at 10 µM (UO-31; [25]): 50%; activity at 10 µM (BT-549; [26]): 47%; activity at 10 µM (EKVX): 61.6%; activity at 10 µM (MDA-MB-468; MDA-MB-468, read-out: Growth percent rate): 39.8%; activity at 10 µM (T-47D): 51.4%; activity at 10 µM (SR): 48.2%; activity at 10 µM (SK-OV-3; [27]): 87%
CC[C@]12C=CCN3CC[C@@]4(c5ccc(OC)cc5N(C)[C@H]4[C@@](O)(C(=O)OC)[C@@H]1OC(=O)CCCN1CCN(C(=O)c4ccco4)CC1)[C@@H]32 [Compound 26] | 86.4% | 104% | 102% | 106% | 91.8% | 80.5% | 79.8% | 112% | 94% | 94.9% | 109% | 80.6% | 96.8% | 87.8% | 82.2% | 75.4% | 108% |  |  | 
CCC12C=CCN3CCC4(c5ccc(OC)cc5N(C)C4C(O)(C(=O)OC)C1OC(=O)CCC(=O)O)C32 (stereo not shown) [Compound 15, 17-(O-3-carboxypropanoyl)vindoline] | 92.4% | 110% |  | 71% | 94.6% | 87.7% | 95.5% |  | 80.2% | 66.6% | 92.5% |  | 80.5% | 87.4% |  |  | 92.3% | 98.8% | 98.7% | 
CCC12C=CCN3CCC4(c5cc(NC(=O)CCl)c(OC)cc5N(C)C4C(O)(C(=O)OC)C1OC(C)=O)C32 (stereo not shown) [Compound 12, 10-chloroacetamidovindoline] | 22.1% | 39.9% |  | 24.2% | 79.4% | 24.5% | 43.8% |  | -17.1% | 43.5% | -4.42% |  | 14.7% | 46.6% |  |  | 33.9% | 34.3% | -40.8% | 
